From patent publication US11064704B2, “Natural product formulations with improved residual insect repellent/deterrent activity” (University of Mississippi, priority 2016, dated 2021) come the findings set out here.

In assay [1] the test system is Aedes aegypti females. Put plainly: in vitro A&K (Ali and Khan) repellent bioassay. Type of assay: in vivo. The settings on record: for residual repellent activity: time post treatment within range of MED: 11.7 μg/cm^2; for residual repellent activity: time post treatment up to which active / after which MED limit crossed: 23.4 μg/cm^2. The source says:
The A&K (Ali and Khan) bioassay system is based on the concept that the mosquitoes are attracted to warm temperatures, and this system uses warm temperature to serve as stimulus for landing and feeding. The details of the A&K bioassay systems are given in Ali et al. (2017).
In summary, this in vitro system consisted of a 30×30×30 cm collapsible aluminum cage (Model 1450B, BioQuip Products, 2321 Gladwick Street, Rancho Dominguez, Calif. 90220, USA) with metal screens. On one panel of the cage, metal screen was replaced with a clear acrylic transparent sheet. […] The blood box had three sides covered with acrylic sheet while the front side was open to insert the feeding device. […] The sliding door served to contain the females inside the cage when the feeding device was pulled out for loading the treatment. This door was slid open when the feeding device was pushed in during the bioassay to expose the females to the treatment.
The feeding device had one 3×4 cm rectangular reservoir that contained the feeding solution. The feeding device was connected to the water circulator. The reservoir of the feeding device with feeding solution was covered with a chemical treated collagen sheet. To observe the landing and feeding of female mosquitoes, feeding solution in the reservoir was heated to match the human body temperature using a water circulator which was set at 37° C. The feeding solution had 3-4° C. higher temperature than the solid platform, and this increased temperature of the feeding solution became a better source of attraction and preference for the mosquitoes than the other parts of the feeding device.
The rectangular reservoir of the feeding device was filled with the CPDA 1+ATP solution having a few drops of green fluorescent traceable water-soluble dye to serve as a feeding source. A test was started when the 3×4 cm marked areas of collagen were treated with the desired chemical in a volume of 50 μL/[…]. The treated collagen sheet was then secured on the reservoir using a thin layer of high vacuum grease (Dow Corning Corporation, Midland, Mich. 48686). The feeding device was then pushed into the blood box and the sliding door was opened to expose females to the treatment.
Stock solutions were made in ethanol. All the dilutions were made in EtOH and applied in a volume of 50 μL covering […] of the collagen sheet. Minimum effective dosage (MED) values in this in vitro bioassay were determined using a method described by Katritzky et al. (2010).
The cage contained 200±10, 8-18 day old female mosquitoes. The number of mosquitoes landing and biting were recorded visually for 1 minute. Three or four cages were used at a time, and one treatment was evaluated in a single cage. The minimum dose at which 2 or less mosquitoes (i.e. less than or equal to 1% of 200 females in the cage) started feeding in 1 minute was the minimum effective dose (“MED”). Continuous exposure of the mosquitoes in the cage can result in reduced landing and biting, therefore, 3-4 cages were used and only one replication was completed for each chemical in a single cage. To ensure accuracy of the treatment, rectangular areas of (3×4 cm (12 cm^2) or 7.5×4 cm (30 cm^2) were marked on the collagen that matched the measurement of the rectangular liquid reservoirs. Treatments were applied in a volume of 50 μL (12 cm^2 area) or 107 μL (30 cm^2 area). Treated collagen sheets were secured on a feeding reservoir containing CPDA-1+ATP solution using a thin layer of grease (Dow Corning Corp, Midland, Mich.). The feeding device was pushed inside the blood box and the sliding door was […] to expose the females to the treatment.
To ensure the normal activity (≥10% landing), control treatment was repeated after every 5 replications, and the bioassay was stopped if the response was less than the control. The data is presented as MED values with the mean percentage biting (±SEM) in parenthesis. […]

Assay [2] concerns Aedes aegypti females. Put plainly: in vivo cloth patch repellent bioassay. The settings on record: for residual repellent activity: time post treatment at which activity lost: 12.5 μg/cm^2; for minimum effective dose (MED): cloth patch, 1 minute exposure. Here is the method: (§1) Cloth patch bioassays were conducted by using in vivo bioassay system described by Katritzky et al. (2008, 2010), with minor modifications. Approximately 500 (±5%) mosquitoes, consisting primarily of females, were transferred into a test cage (45×45×45 cm) using an aspirator. A series of dosages of test compounds were tested to determine MED for repellency of the mosquitoes. MED refers to a concentration of the compound at which biting is less than or equal to 1% (i.e. less than or equal to 5 out of 500 females in the cage) during a 1 minute exposure time. A series of concentrations ranging between 6.25 to 100 μg/cm^2 were tested in the A&K bioassay.
(§2) A single test consisted of covering the hand of a volunteer with a soft-embossed long cuff poly glove (Atlantis Products, Mankato, Minn.), then by a powder-free latex glove (Diamond Grip, Microflex Corporation, Reno, Nev.). The arm was then covered with a knee high stocking (Leggs® Everyday Knee Highs, Winston-Salem N.C. 27102) to avoid the contact of treated muslin cloth with the skin. A plastic sleeve constructed of polyvinyl was then placed around the arm. Velcro strips were used to fix the plastic sleeve around the arm. About half-way between the wrist and elbow, a 4×7.5 cm slit in the plastic sleeve was used to assess mosquito landing and biting behavior. This opening permitted the attractive odors from the skin surface to emanate out and attract mosquitoes through this opening. During testing, this 30 cm^2 open area was covered with a piece of treated muslin cloth. Because of constraint of man power, only one volunteer who was provided written informed consent participated in this study. A protocol approved by the University of Mississippi Human Use Institutional Review Board (IRB protocol #15-070) was followed.
(§3) Stock solutions with concentration of 80 μg/ul were prepared in ethanol. Concentrations ranging between 6.25 to 100 μg/cm^2 were selected for testing based on previous experience of the inventors with the A&K bioassay. A piece of muslin cloth measuring 8×13 cm in size was used. An area of 4×7.5 cm was marked in the center of muslin cloth. Approximately 2.5×7 cm pieces of cardboard were attached by staples on the sides of the muslin cloth. Treatments were applied to the marked area of the cloth in 215 μL volume using a pipetter. After drying, the treated muslin cloth was secured on the opening of the plastic sleeve by using an adhesive tape.
(§4) The test started when the arm with sleeve and treated muslin cloth was inserted into the mosquito cage. […] Residual activity was determined by exposing the females to the treated muslin cloth at an interval of 30 minutes. The treated muslin patch was kept on the arm after the initial treatment and tested every half an hour thereafter.
(§5) Testing started at the highest dose (100 μg/cm^2) and the dose was lowered to reach the MED. Because the mosquitoes show reduced behavioral activity upon repeated exposure to repellent odors from the arm, after 5 successive exposures of the treatments, the caged mosquitoes were allowed a 15 min recovery period.

In the next assay the test system is Aedes albopictus females. Put plainly: in vivo cloth patch repellent bioassay. Here is the method:
as §1, §2, §3, §4, §5

Assay [3] concerns Anopheles quadrimaculatus females. Put plainly: in vivo cloth patch repellent bioassay. Here is the method: as §1, §2, §3, §4, §5
Setting [4] is: 12 cm^2 surface area, Table 7/FIG. 7.
Setting [5] is: Table 13/FIG. 13, mixtures 6.25+6.25 μg/cm^2 versus individual applications, species not given.

Each structure is given as a SMILES string.

`CCN(CC)C(=O)c1cccc(C)c1` [DEET, N,N-diethyl-meta-toluamide, reference compound]: the “residual repellent activity: time post treatment within range of MED” value in the assay on Aedes aegypti females [1] is 30 min. Moreover, in the assay with Aedes aegypti females [1], the “residual repellent activity: time post treatment up to which active / after which MED limit crossed” value came to 120 min. The “minimum effective dose (MED)” value with Aedes aegypti females [1] (setting [4]) turned out to be 11.7 μg/cm^2; with Aedes aegypti females [1] (setting [5]) it was 25 μg/cm^2; with Aedes aegypti females [2], 12.5 μg/cm^2; in the assay with Aedes albopictus females, 12.5 μg/cm^2; in assay [3], 6.25 μg/cm^2. Further, the “residual repellent activity: time post treatment at which activity lost” value with Aedes aegypti females [2] was 30 min.
`CC1=CC[C@]2(C)CC[C@@H](C(C)C)[C@]2(O)CC1` [carotol]: the “residual repellent activity: time post treatment within range of MED” value in the assay on Aedes aegypti females [1] is reported as “failed”. Further, the “residual repellent activity: time post treatment up to which active / after which MED limit crossed” value in the assay on Aedes aegypti females [1] worked out at 60 min. Also, the “residual repellent activity: time post treatment up to which active” value in the assay with Aedes aegypti females [1] (46.9 μg/cm^2) was 120 min. Further, the “minimum effective dose (MED)” value came to 11.7 μg/cm^2 in the assay on Aedes aegypti females [1] (setting [4]); 25 μg/cm^2 in the assay on Aedes aegypti females [1] (setting [5]); 25 μg/cm^2 with Aedes aegypti females [2]; 12.5 μg/cm^2 in the assay with Aedes albopictus females; 6.25 μg/cm^2 in assay [3]. Besides, the “repellent activity” value in the assay on Aedes aegypti females [1] (compared with DEET) is recorded as “comparable to DEET”. In addition, the “residual repellent activity: time post treatment at which activity lost” value with Aedes aegypti females [2] was “failed”. The “residual repellent activity like DEET: time post treatment up to” value in the assay on Aedes aegypti females [2] (25 μg/cm^2) and in the assay on Aedes aegypti females [2] (50 μg/cm^2) was 120 min throughout.
